The supplement of paper PMC10307832

Experiments:
Assay in all cases: relative viability (nuclei count vs DMSO), 5 days (fraction); higher = more cells survive
[1] = test system: NCI-H1793
Summary of the method: (§1)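 Medians of duplicate plates are given as relative viability. That measure is the nuclei count in treated wells divided by the count in vehicle wells. Counts were taken on 4× images of lung cancer cell lines in 1536-well plates, 5 days after pin-tool dosing the day after seeding with one drug alone or a fixed anchor-drug dose plus five library-drug doses (not always all listed) in √10 steps.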

[2] = test system: UMC-11
Summary of the method: as §1

[3] = test system: HOP-62
Summary of the method: as §1

[4] = test system: NCI-H522
Summary of the method: as §1

[5] = test system: NCI-H2170
Summary of the method: as §1

[6] = test system: COR-L 105
Summary of the method: as §1

[7] = test system: NCI-H1355
Summary of the method: as §1

[8] = test system: SK-MES-1
Summary of the method: as §1

[9] = test system: NCI-H2228
Summary of the method: as §1

[10] = test system: NCI-H2347
Summary of the method: as §1

[11] = test system: HARA
Summary of the method: as §1

`O=c1cc(-c2cccc3c2Sc2ccccc2S3)oc(N2CCOCC2)c1` + Nc1nc2[nH]cc(CCc3ccc(C(=O)N[C@@H](CCC(=O)O)C(=O)O)cc3)c2c(=O)[nH]1 [Pemetrexed] (partner 0.2 µM) showed a relative viability ([1]; first compound 0.08 µM) of 0.728, a relative viability ([1]; first compound 0.253 µM) of 1.04 and a relative viability ([1]; first compound 0.8 µM) of 0.798. It also gave a relative viability ([1]; first compound 2.53 µM) of 0.679, a relative viability ([1]; first compound 8 µM) of 1.2 and a relative viability ([2]; first compound 0.08 µM) of 0.823. It also gave a relative viability ([2]; first compound 0.253 µM) of 1.04, a relative viability ([2]; first compound 0.8 µM) of 0.82 and a relative viability ([2]; first compound 2.53 µM) of 0.791. For the same compound, the relative viability ([2]; first compound 8 µM) was 0.935, the relative viability ([3]; first compound 0.08 µM) was 0.322 and the relative viability ([3]; first compound 0.253 µM) was 0.305. The relative viability ([3]; first compound 0.8 µM) was 0.406, the relative viability ([3]; first compound 2.53 µM) was 0.396 and the relative viability ([3]; first compound 8 µM) was 0.352. For the same compound, the relative viability ([4]; first compound 0.08 µM) was 0.844, the relative viability ([4]; first compound 0.253 µM) was 1.13 and the relative viability ([4]; first compound 0.8 µM) was 0.851. It also gave a relative viability ([4]; first compound 2.53 µM) of 1.03, a relative viability ([4]; first compound 8 µM) of 1.12 and a relative viability ([5]; first compound 0.08 µM) of 0.268. For the same compound, the relative viability ([5]; first compound 0.253 µM) was 0.271, the relative viability ([5]; first compound 0.8 µM) was 0.292 and the relative viability ([5]; first compound 2.53 µM) was 0.256. It also gave a relative viability ([5]; first compound 8 µM) of 0.262, a relative viability ([6]; first compound 0.08 µM) of 1.08 and a relative viability ([6]; first compound 0.253 µM) of 0.835. The relative viability ([6]; first compound 0.8 µM) was 1.1, the relative viability ([6]; first compound 2.53 µM) was 0.918 and the relative viability ([6]; first compound 8 µM) was 1.14. The relative viability ([7]; first compound 0.08 µM) was 1.11, the relative viability ([7]; first compound 0.253 µM) was 1.15 and the relative viability ([7]; first compound 0.8 µM) was 0.898. The relative viability ([7]; first compound 2.53 µM) was 0.995, the relative viability ([7]; first compound 8 µM) was 1.06 and the relative viability ([8]; first compound 0.08 µM) was 1.07. The relative viability ([8]; first compound 0.253 µM) was 1.07, the relative viability ([8]; first compound 0.8 µM) was 0.838 and the relative viability ([8]; first compound 2.53 µM) was 0.792. For the same compound, the relative viability ([8]; first compound 8 µM) was 0.833, the relative viability ([9]; first compound 0.08 µM) was 0.351 and the relative viability ([9]; first compound 0.253 µM) was 0.359. The relative viability ([9]; first compound 0.8 µM) was 0.336, the relative viability ([9]; first compound 2.53 µM) was 0.355 and the relative viability ([9]; first compound 8 µM) was 0.473. For the same compound, the relative viability ([10]; first compound 0.08 µM) was 0.386, the relative viability ([10]; first compound 0.253 µM) was 0.458 and the relative viability ([10]; first compound 0.8 µM) was 0.465. For the same compound, the relative viability ([10]; first compound 2.53 µM) was 0.424, the relative viability ([10]; first compound 8 µM) was 0.435 and the relative viability ([11]; first compound 0.08 µM) was 0.24. The relative viability ([11]; first compound 0.253 µM) was 0.227, the relative viability ([11]; first compound 0.8 µM) was 0.228 and the relative viability ([11]; first compound 2.53 µM) was 0.251. It also gave a relative viability ([11]; first compound 8 µM) of 0.286.
